In patent US9920069B2, “Compounds for treatment of fluoroquinolone-resistant bacteria” (The Board of Trustees of the University of Illinois, priority 2014, dated 2018):

Assays:
[1] = system: VRE clinical isolate S344; type: cell-based, E. faecium
[2] = system: VRE clinical isolate S234; assay: organism not typed; type: cell-based, E. faecalis
[3] = system: VRE clinical isolate S557; assay: organism not typed; type: cell-based, E. faecium
[4] = system: VRE clinical isolate C27569; type: cell-based, E. faecium
[5] = system: VRE clinical isolate C28535; type: cell-based, E. faecalis
VRE clinical isolate D1 = assay: organism not typed; type: cell-based, E. faecium
[6] = system: VRE clinical isolate C21667; type: cell-based, E. faecalis
[7] = system: VRE clinical isolate SL152; type: cell-based, E. faecium

Measured: MIC

Cc1cc(=O)n(C)c2c3c4c(cc12)c(C)cc(=O)n4CO3 [DNM, deoxynybomycin]
0.25 µg/mL: all assays above

CCn1c(=O)cc(C)c2cc3c(C)cc(=O)n4c3c(c21)OC4 [DNM-2]
0.25 µg/mL: [4] | [5]
